Experimental data taken from patent EP0286781A2, “Pharmaceutical preparation for treating gastro-intestinal tract diseases” (HEUMANN PHARMA GMBH & CO, priority 1987, dated 1988).

Experiments:
[1] = tested on: immobilisationsstreßinduzierten gastromukosalen Schädigung der Ratte; assay: Immobilisation-stress-induced gastromucosal damage in the rat (ulcer index); assay type: in vivo, Sprague-Dawley-Ratten; details: Dosis 50 mg/kg, intragastral in 1%iger Tylose
Source text: Untersuchungen am Modell der immobilisationsstreßinduzierten gastromukosalen Schädigung der Ratte
(1984), "Scand. J. Gastroenterol.", 19, (Suppl. 101), 69).
Gestreßt wurden die Tiere unmittelbar nach Applikation. Nach Versuchsende wurden den Tieren die Mägen in Ethernarkose entnommen. Die Mägen wurden entlang der großen Kurvatur eröffnet und gespült. Ausmaß und Beschaffenheit der Läsionen wurden nach einer von Marazzi-Uberti und Turba (C. Med. exp., 4, 284 (1961)) angegebenen Einteilung visuell ausgezählt und als Ulcus-Index ausgedrückt.

[2] = hochdosiert, ca. 50 mg/kg; A. Robert u.a. (1984); cited from earlier work

CN=C(NC#N)NCCSCc1[nH]cnc1C [Cimetidin]
Ulcus-Index (MW ±) SD ([1]; rats fasted 16 h, 10 animals, control 1% Tylose 69,8 ± 10,7, significant vs control): 32,1 ± 6,6*)
% Hemmung ([1]; inhibition of Ulcus-Index vs 1% Tylose control): 54%
ulcus- bzw. cytoprotektive Wirkung [2]: ulcus- bzw. cytoprotektive Wirkung
